Measured values from paper PMC12397098, “3-Monothiopomalidomide, a new immunomodulatory imide drug (IMiD), blunts inflammation and mitigates ischemic stroke in the rat” (GeroScience, 2025).
Where two headings read alike, the source gives them in different places.

How the values were obtained:
[1] = system: LPS-induced cytokines (TNF-α, IL-6, IL-10, IL-13) in plasma and cerebral cortex; test: Systemic and brain LPS anti-inflammatory study in rats; type: in vivo; conditions: rat, LPS 1 mg/kg, 4 h
Procedure: They were administered, via the intraperitoneal (I.P.) route, nano-formulated 3-MP at a dose of 13.25 or 26.5 mg/kg (equimolar to a clinically translatable dose of 12.5 and 25 mg/kg thalidomide), vehicle or pomalidomide (25 mg/kg). One hour later, animals were administered either LPS (1 mg/kg, E.Coli 055:B5, Sigma Aldrich, in normal saline, 0.5 mg/mL) or an alike volume of saline (without LPS) via the I.P. route. The LPS dose was selected from prior pilot studies to provide a substantial but sub-maximal rise in plasma proinflammatory cytokine levels, in line with our prior research. The selected 3-MP and pomalidomide doses were chosen as they are equimolar to, or are less than, doses of thalidomide and analogues that have been verified to be well tolerated in our previous studies and are of translational relevance to humans. Four hours after LPS administration, the animals were euthanized, and blood and brain tissues were collected and placed on wet ice. Plasma was quickly separated from blood by centrifugation (10,000 × g, 5 min, 4 °C) and together with the brain samples (cerebral cortex) was stored at − 80 °C. At a later time, cerebral cortex samples were sonicated in a TRIS-based lysis buffer (Mesoscale Discovery) with 3 × protease/phosphatase inhibitors (Halt™ Protease and Phosphatase Inhibitor Cocktail, Thermo Fisher Scientific, Waltham, MA, USA). Samples were then centrifuged (10,000 × g, 5 min, 4 °C), supernatant separated, and protein concentrations were quantified by bicinchoninic acid assay (BCA, Thermo Fisher Scientific). Rat plasma and cerebral cortex samples were analyzed by multi-proinflammatory cytokine ELISA (V-PLEX Proinflammatory Panel 2 Rat Kit, Mesoscale Discovery) following the manufacturer’s protocol to quantify TNF-α, IL-6, IL-10, and IL-13 levels.

[2] = system: LPS-induced cytokines (TNF-α, IL-6, IL-10, IL-13) in plasma and cerebral cortex; test: as above; type: in vivo; conditions: rat, 1 h pre-treatment, 3-MP 13.23 and 26.47 mg/kg I.P., pomalidomide 25 mg/kg I.P., LPS 1 mg/kg I.P., 4 h
[3] = parameters: method as in earlier work; conditions: rat; cited from earlier work
[4] = parameters: method as in earlier work; conditions: nonhuman primate (cynomolgus monkey); cited from earlier work
[5] = cited from earlier work
[6] = Liver microsomal stability, rat
[7] = Liver microsomal stability, human; conditions: 1 μM
[8] = Sprague Dawley, rat, microsomes, 1 h, 1 μM
[9] = human, microsomes, 1 μM
in vitro = conditions: Sprague Dawley, rat, microsomes
[10] = Pharmacokinetic evaluations of 3,6’-DP in rats; type: in vivo, rat; conditions: authors' recent pharmacokinetic evaluations, no data shown
[11] = parameters: method as in PMID 32589144; conditions: cited from earlier work
[12] = system: IL-1β, TNF-α and IL-10 levels in animals with MCAo; parameters: method as in PMID 35631536; conditions: cited from earlier work
[13] = Sprague Dawley, rat, microsomes

Nc1cccc2c1C(=O)N(C1CCC(=O)NC1=O)C2=O (stereo not shown) [pomalidomide]
LPS-mediated elevations in brain IL-13 ([1]; 3-MP both doses and pomalidomide I.P.): maintained
decline in IL-6 brain levels ([1]; 3-MP low dose 13.25 mg/kg I.P., pomalidomide 25 mg/kg I.P.): failed to achieve statistical significance
IL-10 elevation induced by LPS in plasma or brain ([1]; high- or low-dose 3-MP or pomalidomide I.P.): not lessened
LPS-induced cytokine changes in plasma and cerebral cortex [2]: significantly mitigated
bioavailability [3]: 13%
bioavailability [4]: 15%
brain/plasma concentration ratio [5]: 0.71

C[C@]12CC[C@H]3[C@@H](CCC4=CC(=O)CC[C@@]43C)[C@@H]1CC[C@@H]2O [Testosterone, testosterone]
CLint scaled at 1 μM [6, 13]: 3910 mL/min/kg
microsomal CLint at 1 μM [6, 13]: 2170 µL/min/mg
Remaining (T = 60 min) ([6]; rat liver microsomes with NADPH, 1 μM, 60 min): 0.1%
Remaining (NCF = 60 min) ([6]; rat liver microsomes, no co-factor (no NADPH), 1 μM, 60 min): 103.7%
Remaining (T = 60 min) ([7]; human liver microsomes with NADPH, 60 min): 13.2%
Clint(liver) ([7]; human liver microsomes with NADPH, scaled from Clint(mic)): 59.0 mL/min/kg
Remaining (NCF = 60 min) ([7]; human liver microsomes, no co-factor (no NADPH), 60 min): 97.1%

O=C(O)Cc1ccccc1Nc1c(Cl)cccc1Cl [Diclofenac, diclofenac, reference compound]
Remaining (NCF = 60 min) [8]: 107.9%
Remaining (T = 60 min) [8]: 2.2%
Clint(liver) [9]: 292.3 mL/min/kg
Clint(mic) [9]: 324.8 µL/min/mg
Remaining (NCF = 60 min) ([9]; 1 h): 101.0%
Remaining (T = 60 min) ([9]; 1 h): 0.0%
CLint scaled at 1 μM (in vitro): 227 mL/min/kg
microsomal CLint at 1 μM (in vitro): 126 µL/min/mg

Nc1cccc2c1C(=S)N(C1CCC(=S)NC1=O)C2=O (stereo not shown) [3,6’-DP, 3,6’-dithiopomalidomide]
disappearance from plasma [10]: disappears relatively rapidly
oral bioavailability [10]: low
brain/plasma concentration ratio [11]: 0.8
IL-1β levels [12]: significantly reduce
IL-10 levels [12]: increased substantially
TNF-α levels [12]: significantly reduce
